Results reported in patent US6465496B1, “Torsemide polymorphs” (Teva Pharmaceutical Industries, Ltd., priority 1999, dated 2002).
Each block holds one compound with its values, some of them ahead of it.

Legend:
Format in all cases: physicochemical
[1] = solubility of amorphous torsemide compared with crystalline forms; conditions: compared with crystalline forms reported in U.S. Pat. No. 5,914,336, U.S. Pat. No. Re. 34,672 and WO 00/20395
[2] = stability of the crystal form in an ethanol slurry; conditions: stirred at room temperature
Procedure: (§1) In another embodiment of the present invention, torsemide modification I may be made from torsemide modification II by reslurry in ethanol. By the process of the present invention, torsemide modification II is stirred at room temperature in ethanol for a time sufficient to induce the transformation of torsemide modification II to torsemide modification I. Preferably the mixture is stirred for 2 hours. Torsemide modification I is isolated upon filtering the mixture followed by drying under high vacuum at a temperature of about 40° C. to about 60° C. for a sufficient time to complete drying. Drying is complete upon reaching constant weight. It has been observed that torsemide modification I is stable in an ethanol slurry for at least 65 hours.
as §1, with “dimethyl formamide (DMF).” for “ethanol.”, “methods” for “process”, “DMF” for “ethanol”, “I.” for “I. Preferably the mixture is stirred for 2 hours.”, “It has been observed that torsemide modification I is stable in an ethanol slurry for at least 65 hours.” left out

[3] = pH at which torsemide begins to precipitate on acidifying the basified aqueous/alcohol solution; conditions: water/organic solvent (isopropanol or ethanol) solution, pH lowered with acid
Procedure: An organic solvent is then added to the torsemide solution with stirring. Suitable solvents include water soluble or partially water soluble alcohols such as propanol, isopropanol and ethanol. Preferably, the solvent is isopropanol or ethanol. The pH of the torsemide solution is then lowered by the addition of a suitable acid until the solution begins to become cloudy and torsemide Dupont Form 2 begins to precipitate. Torsemide begins to precipitate at about pH 6. Suitable acids include acetic acid, hydrochloric acid, sulfuric acid, mineral acids and the like. Acetic acid is preferred. Since torsemide is known to decompose at pH 3.0, the pH of the solution is preferably maintained at about 6±0.1 with a minimum pH of […] and a maximum pH of 7.5±0.5. Torsemide Dupont Form 2 is then isolated by filtration and drying to remove solvent.
An organic solvent is then added to the torsemide solution with stirring. Suitable solvents include water soluble or partially water soluble alcohols such as propanol, isopropanol and ethanol. Preferably, the solvent is isopropanol or ethanol. The pH of the torsemide solution is then lowered by the addition of a suitable acid until the solution begins to become cloudy and torsemide Dupont Form 2 solvent adduct begins to precipitate. Torsemide begins to precipitate at about pH 6. […]

Compound: Cc1cccc(Nc2ccncc2S(=O)(=O)NC(=O)NC(C)C)c1 [amorphous torsemide]
solubility relative to crystalline forms of torsemide [1]: more soluble than crystalline forms of torsemide

time stable in an ethanol slurry [2]: at least 65 hours
Compound: Cc1cccc(Nc2ccncc2S(=O)(=O)NC(=O)NC(C)C)c1 [torsemide modification I]

pH at which torsemide begins to precipitate [3]: about 6 pH
Compound: Cc1cccc(Nc2ccncc2S(=O)(=O)NC(=O)NC(C)C)c1 [torsemide, 1-Isopropyl-3-[(4-m-toluidino-3-pyridyl)sulfonyl]urea]
